This assay concerns volunteers who tested negative for HIV antibodies. In words: Clinical effects observed in volunteers who tested negative for HIV antibodies. The format is in vivo, human. The protocol:
was given at dosage of 0.033 mg/kg/da to 0.133 mg/kg/da for seven days. As indicated in the Table, the unexpected effects observed in these volunteers who tested negative for HIV antibodies were the following: […]

Take “D--Ala--Ser--Thr--Thr--Thr--Asn--Tyr--Thr--amide (ASTTTNYT; N-terminal D-residue; C-terminal amide; printed: Ala--Ser--Thr--Thr--Thr--Asn--Tyr--Thr--) [Peptide T]”: the “symptoms of substance abuse, childhood dyslexia and depression” value (0.033 mg/kg/da to 0.133 mg/kg/da for seven days) is “ameliorated”. Further, the “scores on memory and attention components of standard neuropsychologic tests” value (0.033-0.133 mg/kg/da for seven days, effect remitted after Peptide T was discontinued) was “Incremental scores”. In addition, the “physical activity while on drug” value (all subjects, did not continue after drug discontinuance) is listed as “increases in physical activity”. Further, the “mood scores on depression scales” value (the two research volunteers who had prior histories of depression) is given as “Improved mood scores”. In addition, the “duration of the improved mood effect” value (the two research volunteers who had prior histories of depression, follow-up) is listed as “maintained for one month of follow-up”.

(Values after patent US5063206A, “Compositions having use as treatment of neuropsychiatric deficits” (The United States of Americas as represented by the …, priority 1989, dated 1991).)
